row,melting point,Compound
1,120 to 122 °C,"C[C@H](NC(=O)c1c(CN2CCN(C(=O)CCN3CCCCC3)CC2)c(-c2ccccc2)nc2ccccc12)C1CCCCC1 [Example 24, 2-Phenyl-3-[4-(3-piperidin-1-yl-propanoyl)-piperazin-1-ylmethyl]-quinoline-4-carboxylic acid ((S)-1-cyclohexyl-ethyl)-amide]"
2,125 to 129 °C,"CCOC(=O)C(C(=O)N1CCN(Cc2c(-c3ccccc3)nc3ccccc3c2C(=O)N[C@@H](C)C2CCCCC2)CC1)c1ccccc1 (stereo partly drawn) [Example 16, 3-{4-[4-((S)-1-Cyclohexyl-ethylcarbamoyl)-2-phenyl-quinolin-3-ylmethyl]-piperazin-1-yl}-3-oxo-2-phenyl-propionic acid ethyl ester]"
3,164 to 166 °C,"C[C@H](NC(=O)c1c(CN2CCN(C(=O)CCN)CC2)c(-c2ccccc2)nc2ccccc12)C1CCCCC1 [Example 21, 3-[4-(3-Amino-propanoyl)-piperazin-1-ylmethyl]-2-phenyl-quinoline-4-carboxylic acid ((S)-1-cyclohexyl-ethyl)-amide]"
4,125 °C,"CCNCCC(=O)N1CCN(Cc2c(-c3ccccc3)nc3ccccc3c2C(=O)N[C@@H](C)C2CCCCC2)CC1 [Example 22, 3-[4-(3-Ethylamino-propanoyl)-piperazin-1-ylmethyl]-2-phenyl-quinoline-4-carboxylic acid ((S)-1-cyclohexyl-ethyl)-amide]"
5,116 to 119 °C,"C[C@H](NC(=O)c1c(CN2CCN(C=O)CC2)c(-c2ccccc2)nc2ccccc12)C1CCCCC1 [Example 18, 3-(4-Formyl-piperazin-1-ylmethyl)-2-phenyl-quinoline-4-carboxylic acid ((S)-1-cyclohexyl-ethyl)-amide]"
6,185 to 188 °C,"C[C@H](NC(=O)c1c(CN2CCN(C(=O)c3ccc(C(=O)O)cc3)CC2)c(-c2ccccc2)nc2ccccc12)C1CCCCC1 [Example 15, 4-(1-{4-[4-((S)-1-Cyclohexyl-ethylcarbamoyl)-2-phenyl-quinolin-3-ylmethyl]-piperazin-1-yl}-methanoyl)-benzoic acid]"

# Further lines, the compound ahead of its results:
row,Compound,melting point
1,"C[C@H](NC(=O)c1c(CN2CCN(C(=O)c3cncc(C(=O)O)c3)CC2)c(-c2ccccc2)nc2ccccc12)C1CCCCC1 [Example 14, 5-(1-{4-[4-((S)-1-Cyclohexyl-ethylcarbamoyl)-2-phenyl-quinolin-3-ylmethyl]-piperazin-1-yl}-methanoyl)-nicotinic acid]",250 to 255 °C (dec.)
2,"C[C@H](NC(=O)c1c(CN2CCN(C(=O)c3nccnc3C(=O)O)CC2)c(-c2ccccc2)nc2ccccc12)C1CCCCC1 [Example 12, 3-(1-{4-[4-((S)-1-Cyclohexyl-ethylcarbamoyl)-2-phenyl-quinolin-3-ylmethyl]-piperazin-1-yl}-methanoyl)-pyrazine-2-carboxylic acid]",162 to 165 °C
3,"C[C@H](NC(=O)c1c(CN2CCN(C(=O)/C=C/C(=O)O)CC2)c(-c2ccccc2)nc2ccccc12)c1ccccc1 [Example 9, (E)-4-Oxo-4-{4-[2-phenyl-4-((S)-1-phenyl-ethylcarbamoyl)-quinolin-3-ylmethyl]-piperazin-1-yl}-but-2-enoic acid]",214 to 215 °C
4,"C[C@H](NC(=O)c1c(CN2CCN(C(=O)c3cccc(C(=O)O)c3)CC2)c(-c2ccccc2)nc2ccccc12)C1CCCCC1 [Example 13, 3-(1-{4-[4-((S)-1-Cyclohexyl-ethylcarbamoyl)-2-phenyl-quinolin-3-ylmethyl]-piperazin-1-yl}-methanoyl)-benzoic acid]",179 to 180 °C
5,"C[C@H](NC(=O)c1c(CN2CCN(C(=O)CCCC(=O)O)CC2)c(-c2ccccc2)nc2ccccc12)C1CCCCC1 [Example 11, 5-{4-[4-((S)-1-Cyclohexyl-ethylcarbamoyl)-2-phenyl-quinolin-3-ylmethyl]-piperazin-1-yl}-5-oxo-pentanoic acid]",125 to 130 °C
6,"C[C@H](NC(=O)c1c(CN2CCN(C(=O)[C@H]3CCCC[C@H]3C(=O)O)CC2)c(-c2ccccc2)nc2ccccc12)c1ccccc1 (mixture of isomers) [Example 8, Cis 2-(1-{4-[2-Phenyl-4-((S)-1-phenyl-ethylcarbamoyl)-quinolin-3-ylmethyl]-piperazin-1-yl}-methanoyl)-cyclohexanecarboxylic acid]",130 to 140 °C
7,"C[C@H](NC(=O)c1c(CN2CCN(C(=O)CC(=O)O)CC2)c(-c2ccccc2)nc2ccccc12)C1CCCCC1 [Example 10, 3-{4-[4-((S)-1-Cyclohexyl-ethylcarbamoyl)-2-phenyl-quinolin-3-ylmethyl]-piperazin-1-yl}-3-oxo-propionic acid]",150 to 155 °C
8,"C[C@H](NC(=O)c1c(CN2CCN(C(=O)CC(C)(C)CC(=O)O)CC2)c(-c2ccccc2)nc2ccccc12)c1ccccc1 [Example 6, 3,3-Dimethyl-5-oxo-5-{4-[2-phenyl-4-((S)-1-phenyl-ethylcarbamoyl)-quinolin-3-ylmethyl]-piperazin-1-yl}-pentanoic acid]",213 to 215 °C
9,"C[C@H](NC(=O)c1c(CN2CCN(C(=O)[C@@H]3C[C@H]3C(=O)O)CC2)c(-c2ccccc2)nc2ccccc12)c1ccccc1 (mixture of isomers) [Example 7, Trans 2-(1-{4-[2-Phenyl-4-((S)-1-phenyl-ethylcarbamoyl)-quinolin-3-ylmethyl]-piperazin-1-yl}-methanoyl)-cyclopropanecarboxylic acid]",135 to 145 °C

# Reference: patent US20040082589A1, “Quinoline derivatives as nk-3 and nk-2 antagonists” (priority 2000, published 2004)
